Values quoted from earlier work as cited in patent publication US4690936A (priority 1980, dated 1987).
Non-standard residues stand in square brackets, D forms with d. Residues, ends and D or L forms follow the SMILES beside them. No end group written: not given here. pGlu = O=C1CC[C@@H](C(=O)O)N1

System: ACE
Settings: competitive substrate rather than true inhibitor

Molecule | type of ACE interaction (lower Km than angiotensin I)
C[C@H](NC(=O)[C@H](Cc1c[nH]c2ccccc12)NC(=O)[C@H](CCCCN)NC(=O)[C@@H]1CCC(=O)N1)C(=O)N1CCC[C@H]1C(=O)O [BPP5a, <GluLysTrpAlaPro] ([pGlu]KWAP-OH) | competitive substrates
RPPGFSPFR [bradykinin] | competitive substrates
